Results reported in patent US20250312469A1 (CANGET BIOTEKPHARMA, priority 2024, published 2025).
Marks after values point to notes of the source that are not given here.

Assay: Rat toxicology/MTD, non-clinically compatible FL118 HPMC suspension (Covance)
Conditions: for % BW Change (Day 4) / BW Change (Day 4) / Mean body weight Day 1 / Mean body weight Day 4: 3.3 mg/kg/dose
Source text: Twenty male and 20 female Hsd: Sprague Dawley®SDR rats were received from Envigo RMS, Inc. (Indianapolis, Indiana). Animals were acclimated to the test facility for 7 days prior to initiation.
Prior to group assignment, animals were excluded from the selection pool/sex to produce minimal variation. Animals were assigned to the study using a computerized procedure designed to achieve body weight balance with respect to group assignment with the following experimental design.
Doses were based on the most recently recorded scheduled body weight. Animals were checked twice daily (a.m. and p.m.) for mortality, abnormalities, and signs of pain or distress. Cage-side observations were conducted for each animal once daily during the dosing phase, except on days when detailed observations were conducted. Abnormal findings were recorded. Detailed observations were conducted for each animal once during the pre-dose phase, and on Days 1, 4 and 8 (prior to dosing, as applicable) of the dosing phase. Detailed observations were also collected for each animal on days of scheduled sacrifice (all surviving animals). On each day of dosing, cage-side observations were conducted for each animal approximately 1, 4, and 24 hours postdose. Postdose observations were based on the time dosing was completed for each group/sex. Body weights were recorded once during the pre-dose phase, and on Days 1, 4, and 8 (prior to dosing, as applicable) of the dosing phase. The amount of food consumed by each cage of was recorded Days 1 to 4, Days 4 to 8, and Days 8 to 9. Blood samples for hematology, coagulation, and clinical chemistry were collected from fasted toxicity animals via a jugular vein. Blood samples were collected on the day of scheduled sacrifice. […] The anticoagulants were sodium citrate for coagulation tests and potassium EDTA for hematology tests. Samples for clinical chemistry were collected without anticoagulant.
On Day 10 of the dosing phase, all surviving animals, having been fasted overnight, were anesthetized via isoflurane inhalation, exsanguinated, and necropsied. Terminal body weights were recorded for animals sacrificed at a scheduled interval. A macroscopic examination of the external features of the carcass; external body orifices; abdominal, thoracic, and cranial cavities; organs; and tissues was performed. Organ weights were recorded at the scheduled sacrifice. Paired organs were weighed together. Bone marrow smears (two slides) were prepared from the femur of each animal.
Various models of calculators, computers, and computer programs were used to analyze data in this study. Values in some tables (e.g., means, standard deviations, or individual values) may differ slightly from those in other tables, from individually calculated data, or from statistical analysis data, because different models round off or truncate numbers differently. However, neither the integrity nor the interpretation of the data was affected by these differences.
Data for each sex were analyzed separately; only data collected on or after the first day of dosing were analyzed statistically. Analysis of variance (ANOVA) and pairwise comparisons were used to analyze absolute body weight, Body weight change and continuous clinical pathology values. Levene's test was done to test for equality of variances between groups.

CCC1(O)C(=O)OCc2c1cc1n(c2=O)Cc2cc3cc4c(cc3nc2-1)OCO4 (stereo not drawn) [FL118]
% BW Change (Day 4) (Female): −14% | BW Change (Day 4) (Female): −26* g | Mean body weight Day 1 (Female): 192 g | Mean body weight Day 4 (Female): 168* g | % BW Change (Day 4) (Male): −12% | BW Change (Day 4) (Male): −25* g | Mean body weight Day 1 (Male): 207 g | Mean body weight Day 4 (Male): 183* g | highest non-severely toxic dose (HNSTD) (oral, day 1 and day 8): 1.65 mg/kg/dose
